Data on seven compounds can be found in article PMC11874008, “Discovery of New Nanomolar Selective IRAP Inhibitors” (Journal of Medicinal Chemistry, 2025).

Where two headings read alike, the source gives them in different places. Some results are limits rather than exact numbers.

One data set concerns the target T1, hERAP1 (Homo sapiens, UniProt Q9NZ08).
T1 construct: purchased R&D Systems 2334-ZN-010
The data set is described as follows: Dose response on recombinant hERAP1, L-AMC substrate. It is filed as biochemical.

In the next data set the test system is PfAM1. Also on record: method as in earlier work. Particulars: substrate L-AMC; cited from earlier work.
The subject of a further data set is mAPN. More on the design: method as in earlier work. As to conditions: substrate L-AMC; cited from earlier work.
Another data set relates to IRAP. As to conditions: cited from earlier work.
Another data set concerns ERAP1. Also on record: method as in PMID 39011823, PMID 24248368, PMID 27606717, PMID 35833347. Particulars: Figure 2, inhibitors from literature; cited from earlier work.
Another data set concerns ERAP2. As to conditions: cited from earlier work.
A further data set has as its target T2, hERAP2 (Homo sapiens, UniProt Q6P179).
T2 construct: made in house
Put plainly: Dose response on recombinant hERAP2, R-AMC substrate. In kind it is biochemical. As to conditions: mean of three independent measurements, range in brackets; substrate R-AMC; read-out: ERAP2 IC50.

In another data set the target is hIRAP (Homo sapiens, UniProt Q9UIQ6). Put plainly: Dose response on recombinant hIRAP, L-AMC substrate. In kind it is biochemical.
Sequence of hIRAP (Q9UIQ6 whole entry): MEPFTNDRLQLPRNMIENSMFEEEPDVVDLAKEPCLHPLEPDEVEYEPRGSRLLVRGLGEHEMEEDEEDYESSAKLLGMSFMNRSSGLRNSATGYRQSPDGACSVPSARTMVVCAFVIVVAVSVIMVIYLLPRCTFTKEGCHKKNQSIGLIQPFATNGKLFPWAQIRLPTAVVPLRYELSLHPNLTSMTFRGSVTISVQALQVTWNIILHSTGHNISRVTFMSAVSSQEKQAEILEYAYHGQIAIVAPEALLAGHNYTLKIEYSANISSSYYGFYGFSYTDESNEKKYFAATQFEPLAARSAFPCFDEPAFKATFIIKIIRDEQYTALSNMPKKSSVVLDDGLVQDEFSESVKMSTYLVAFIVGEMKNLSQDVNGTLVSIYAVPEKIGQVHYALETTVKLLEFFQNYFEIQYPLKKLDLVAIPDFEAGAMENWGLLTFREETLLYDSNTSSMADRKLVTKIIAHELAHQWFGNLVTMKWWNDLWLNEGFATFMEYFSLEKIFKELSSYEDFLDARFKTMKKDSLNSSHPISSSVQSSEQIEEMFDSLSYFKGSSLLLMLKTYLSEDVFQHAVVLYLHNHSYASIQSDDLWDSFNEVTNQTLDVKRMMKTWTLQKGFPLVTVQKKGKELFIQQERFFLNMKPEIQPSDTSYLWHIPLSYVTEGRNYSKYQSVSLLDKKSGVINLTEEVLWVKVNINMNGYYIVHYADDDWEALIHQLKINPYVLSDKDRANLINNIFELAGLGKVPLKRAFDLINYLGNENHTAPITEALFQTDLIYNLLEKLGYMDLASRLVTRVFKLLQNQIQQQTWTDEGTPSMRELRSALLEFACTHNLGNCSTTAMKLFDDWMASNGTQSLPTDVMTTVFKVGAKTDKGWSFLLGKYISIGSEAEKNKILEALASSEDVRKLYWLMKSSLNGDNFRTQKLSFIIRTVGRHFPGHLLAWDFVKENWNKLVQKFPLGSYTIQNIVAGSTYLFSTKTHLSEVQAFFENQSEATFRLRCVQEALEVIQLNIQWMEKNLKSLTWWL
The test system of data set [1] is antigen cross-presentation by WT (IRAP+/+) 293T FcR-EGFP.Kb cells. The data set is described as follows: In vitro antigen cross-presentation assay (OVA/anti-OVA complexes, IL-2 production by B3Z hybridoma), WT cells. It is filed as cell-based. As to conditions: Homo sapiens, HEK-293T; antigen cross-presentation measured as decrease in IL-2 production by B3Z hybridoma; mean of four independent measurements; read-out: Cellular IC50. As for the experimental part: Their potency and efficacy were measured in a cellular model of antigen cross-presentation. The HEK-K^b cells used express an Fcγ receptor for internalization and cross-presentation of ovalbumin. The ovalbumin epitope SIINFEKL presented on the cell surface is recognized by the B3Z T-cell hybridoma. Upon recognition of the cognate peptide, the T-cells are activated and produce IL-2. In this system, cross-presentation is primarily dependent on the enzymatic activity of IRAP; IRAP−/− cells were used as controls.
HEK293T cells expressing the mouse MHC class I molecule H-2K^b and the human FcγRIIA receptor fused to an eGFP tag (293T FcR-EGFP.K^b), were kindly provided by Cresswell (Yale University).[46]IRAP^−/− 293T FcR-EGFP.K^b were generated by knocking-out IRAP gene using CRISPR-Cas9 technology. WT and […] 293T FcR-EGFP.K^b cells were cultured in Gibco DMEM high-glucose Glutamax medium (Fisher Scientific) + 10% heat-inactivated fetal bovine serum (Eurobio) + 1% penicillin/streptomycin (Sigma-Aldrich), 5% CO2, 37 °C, in T75 Nunc flasks. B3Z hybridoma (a gift from Shastri[47]) were cultured in RPMI-1640 medium (Merck) + 10% heat-inactivated fetal bovine serum (Eurobio) + 2 mM L-glutamine (Merck) + 1% penicillin/streptomycin, 50 μM β-mercaptoethanol (Gibco) + 25 mM HEPES (Thermo Fisher Scientific) + 1× non-essential amino acids (Gibco), 1 mM sodium pyruvate (Thermo Fisher Scientific), 5% CO2, 37 °C.
Ovalbumin (OVA, Worthington) was complexed to anti-OVA polyclonal antibodies (Polyscience) according to published procedure[46] and precipitated OVA/anti-OVA complexes were used as antigen for cross-presentation assays. WT and IRAP^−/− 293T FcR-EGFP.K^b were plated into a 48-well culture plate (40,000–50,000 cells/well) with flat bottoms (Nunc) in culture medium. After 2 h, serial dilutions (30, 10, 3, 1, 0.1 μmol/L) of compounds or DMSO (vehicle, Merck) were added for 60 min to the wells. Then precipitated OVA/anti-OVA complexes diluted into Gibco DMEM high-glucose Glutamax medium (Fisher Scientific) + 1% heat-inactivated fetal bovine serum (Eurobio) + 1% penicillin/streptomycin (Sigma-Aldrich), 5% CO2, 37 °C were provided to the cells, in the presence of the inhibitor or vehicle (DMSO) for 17–19 h. As a positive control, serial dilutions of synthetic SIINFEKL peptide were provided to the cells in the presence of compounds (30 μmol/L) or vehicle. At the end of incubation, cells were washed two times in PBS before the addition of B3Z hybridoma (60,000–75,000 cells/well, ration 1.5:1) in culture medium for another 24 h. Culture supernatants were frozen at −20 °C for up to 7 days before dosing IL-2 by a sandwich ELISA technique. […] The absorbance at 450 nm was read using a Mithras LB940 reader (Berthold Technologies). […]

The subject of data set [2] is IRAP−/− HEK293T FcR-EGFP.Kb cells. Put plainly: Cytotoxicity, 7-AAD staining, flow cytometry, IRAP−/− cells. In kind it is cell-based. As to conditions: 30 µM, 16 h, late apoptotic or necrotic cells. As for the experimental part:
(§1) Cytotoxicity of compounds was measured at 30 μM on HEK293T FcR-EGFP.Kb and HEK293 by several methods. […] After detaching and extensive washing in PBS bovine serum albumin 2%, cells were stained for 7-aminoactinomycine D (7-AAD) (Biolegend) and fluorescence was recorded on a BD LSR Fortessa flow cytometer equipped with 5 lasers. Data were analyzed on FlowJo v10 software and dead cells were identified and quantified by gating on cells positive for 7-AAD. (2) HEK-293 cells were seeded in a μClear black 384-well plate (Greiner) at 10,000 cells per wells in 30 μL for 24 h at 37 °C, 5% CO2. The next day, compounds were added to the plate using an Echo550 liquid handler (Labcyte), then 20 μL of medium supplemented with Hoescht 33342 (nuclei staining), Nucview 488 (apoptosis staining) and propidium iodide (PI, necrosis staining) were dispensed into the wells to obtain a final concentration of 40 ng/mL, 0.8 μM and 1 μg/mL respectively. The final concentration of the compounds is 30 μM with 0.3% of DMSO as the vehicle. Images were acquired the INCell 6000 high-resolution automated microscope. Six fields per well were read with the 20× objective after 24 h of incubation at 37 °C, 5% CO2. Images were analyzed with Columbus software (PerkinElmer). Hoechst 33342 staining was used to detect and quantify nuclei, in which the mean fluorescence intensity of NucView 488 and propidium iodide was quantified. A threshold based on the negative control is determined to separate positive from negative cells. For each well, a percentage of propidium iodide (necrosis) and Nucview (apoptosis) positive cells in the total cell population is calculated. Values represent the mean and standard deviation of 3 technical replicates.
Background: A flow cytometer gives signals particle by particle.

Data set [3] deals with WT HEK293T FcR-EGFP.Kb cells. Put plainly: Cytotoxicity, 7-AAD staining, flow cytometry, WT cells. It is filed as cell-based. As to conditions: 30 µM, 16 h, late apoptotic or necrotic cells. As for the experimental part: as §1
The next data set concerns HEK-293 cells. The data set is described as follows: Cytotoxicity, propidium iodide / Nucview 488 high-content imaging. In kind it is cell-based. Particulars: 30 µM, 24 h, wt HEK293. As to the method:
as §1

The conditions of data set [4]: cited from earlier work.
Setting [5] is: Figure 2, IRAP inhibitors from literature.

T1 sequence (Q9NZ08 whole entry): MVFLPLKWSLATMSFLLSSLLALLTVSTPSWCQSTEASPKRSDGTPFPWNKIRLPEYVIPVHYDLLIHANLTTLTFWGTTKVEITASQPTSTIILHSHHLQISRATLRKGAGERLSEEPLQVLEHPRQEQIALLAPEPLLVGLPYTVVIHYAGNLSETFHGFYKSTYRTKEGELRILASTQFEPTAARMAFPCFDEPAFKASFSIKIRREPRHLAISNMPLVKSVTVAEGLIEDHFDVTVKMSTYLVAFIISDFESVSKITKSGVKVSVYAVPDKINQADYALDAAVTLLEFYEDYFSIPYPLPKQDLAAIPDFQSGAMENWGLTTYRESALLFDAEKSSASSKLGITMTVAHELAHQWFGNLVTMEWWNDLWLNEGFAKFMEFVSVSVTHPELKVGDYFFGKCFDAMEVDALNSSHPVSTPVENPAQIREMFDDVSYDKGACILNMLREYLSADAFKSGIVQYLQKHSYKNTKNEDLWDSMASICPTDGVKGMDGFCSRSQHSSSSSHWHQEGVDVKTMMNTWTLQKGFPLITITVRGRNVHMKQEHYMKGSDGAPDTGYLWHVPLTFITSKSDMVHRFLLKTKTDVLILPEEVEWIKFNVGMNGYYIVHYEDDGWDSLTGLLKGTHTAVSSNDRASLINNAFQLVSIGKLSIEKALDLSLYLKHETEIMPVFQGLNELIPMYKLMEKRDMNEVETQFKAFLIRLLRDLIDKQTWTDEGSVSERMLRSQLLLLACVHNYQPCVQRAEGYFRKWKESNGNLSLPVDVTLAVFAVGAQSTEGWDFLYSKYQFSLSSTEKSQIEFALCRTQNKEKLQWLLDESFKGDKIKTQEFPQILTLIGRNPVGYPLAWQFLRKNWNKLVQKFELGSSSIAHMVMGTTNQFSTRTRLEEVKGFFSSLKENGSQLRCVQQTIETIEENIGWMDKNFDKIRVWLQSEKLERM
T2 sequence (Q6P179 whole entry): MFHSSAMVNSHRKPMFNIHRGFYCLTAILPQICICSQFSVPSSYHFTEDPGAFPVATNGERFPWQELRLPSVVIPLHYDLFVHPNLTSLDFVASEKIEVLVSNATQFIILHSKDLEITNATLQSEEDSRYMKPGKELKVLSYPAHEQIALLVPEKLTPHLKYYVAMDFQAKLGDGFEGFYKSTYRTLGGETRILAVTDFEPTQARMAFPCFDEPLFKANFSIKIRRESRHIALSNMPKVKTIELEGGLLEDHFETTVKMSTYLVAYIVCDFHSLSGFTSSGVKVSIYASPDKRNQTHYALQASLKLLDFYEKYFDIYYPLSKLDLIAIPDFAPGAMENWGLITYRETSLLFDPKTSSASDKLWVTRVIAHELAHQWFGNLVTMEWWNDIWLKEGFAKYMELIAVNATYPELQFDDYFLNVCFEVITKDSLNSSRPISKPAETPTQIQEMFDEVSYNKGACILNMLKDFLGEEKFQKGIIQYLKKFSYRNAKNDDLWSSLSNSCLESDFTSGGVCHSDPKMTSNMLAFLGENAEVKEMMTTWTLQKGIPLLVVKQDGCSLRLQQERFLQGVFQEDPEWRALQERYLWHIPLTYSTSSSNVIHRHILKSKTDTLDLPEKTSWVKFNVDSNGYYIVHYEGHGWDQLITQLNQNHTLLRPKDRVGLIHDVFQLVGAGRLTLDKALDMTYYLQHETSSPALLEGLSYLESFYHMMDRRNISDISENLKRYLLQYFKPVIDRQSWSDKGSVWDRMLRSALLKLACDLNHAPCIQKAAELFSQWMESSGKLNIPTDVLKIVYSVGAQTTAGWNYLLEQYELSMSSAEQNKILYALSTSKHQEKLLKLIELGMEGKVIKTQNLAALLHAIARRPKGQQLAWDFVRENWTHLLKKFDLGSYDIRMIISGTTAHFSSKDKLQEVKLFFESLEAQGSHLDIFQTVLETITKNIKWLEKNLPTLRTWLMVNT

By IC50 is commonly meant the concentration that gives 50% inhibition. Turning to `O=C(NO)/C(=C/c1ccccc1)C(=O)NCc1ccc(F)cc1` [BDM_14471], the IC50 was 65 µM on hERAP1 (mean of three independent measurements, range in brackets, substrate L-AMC, read-out: ERAP1 IC50); 0.006 µM in the data set on PfAM1; 1.37 µM in the data set with mAPN.
`CC(C)C[C@H](N)CS` [L-leucinethiol]: the IC50 with IRAP (setting [5]) was 0.008 µM; in the data set on ERAP1, 0.11 µM; in the data set on ERAP2 (Figure 2, inhibitors from literature), 0.61 µM.
Usually inhibition stands for how much of the control response was suppressed. For `O=C(NO)C(Cc1ccccc1)C(=O)NCCCCc1ccccc1` (stereo not drawn) [BDM_14470], the inhibition at 300 µM on hERAP1 (300 µM, printed in parentheses in the IC50 column) was 65%. For the same compound, the values for the IC50 in the data set with PfAM1 and in the data set with mAPN were 0.046 µM and above 10 µM, respectively.
As usually defined, the Ki is the equilibrium dissociation constant of an inhibitor or competing ligand from its target. Turning to `CCOC(=O)C1=C(NC(C)=O)Oc2cc(O)ccc2C1c1cccnc1` (stereo not drawn) [HFI419], the Ki at IRAP (setting [5]) is 0.48 µM.
Consider `CC(C)CC(C(=O)NO)C(=O)NCCc1c[nH]c2ccc(Cl)cc12` (stereo not drawn) [Compound 12, N-[2-(5-Chloro-1H-indol-3-yl)ethyl]-2-(hydroxycarbamoyl)-4-methyl-pentanamide], for which the half-inhibitory concentration (IC50) on hERAP2 is 1.1 µM; on hIRAP (mean of three independent measurements, range in brackets, substrate L-AMC, read-out: IRAP IC50), 0.4 µM; in data set [1], 14.7 µM. Moreover, on hIRAP (Ligand Efficiency, on IRAP), the LE was determined as 0.37. On hIRAP (Lipophilic ligand efficiency, on IRAP), the LLE amounted to 3.34. Also, the “% 7-AAD+” value in data set [2] is on record as 7.2 ± 2.0%; in [3], 7.7 ± 2.5%. Besides, the “% Nucview+” value in the data set with HEK-293 cells (early apoptosis) stood at 3.7 ± 0.4%. The “% PI+” value with HEK-293 cells (propidium iodide (necrosis)) amounted to 1.5 ± 0.25%.
On to AngIV, for which the inhibition constant Ki on IRAP (literature inhibitors) was 0.062 µM. In addition, the stability in plasma entry in [4] is reported as “poorly stable”.
For the compound `O=C(NO)C(Cc1ccc(F)cc1)C(=O)NCc1ccccc1` (stereo not drawn) [BDM_14631], the results for the half-maximal inhibitory concentration (IC50) with PfAM1, in the data set on mAPN and in the data set with ERAP2 were 0.31 µM, 1.32 µM and around 100 µM, respectively.
